{"source": "patent US20010009917A1", "about": "“Methods and compositions for treating asthma, atherosclerosis and inflammatory diseases using optically pure (-zileuton” (priority 1993, published 2001)", "origin": "cited, not measured here", "key": {"[1]": {"conditions": "dog liver microsomes"}, "LTB4": {"test_system": "LTB4", "conditions": "human volunteers, 800 mg p.o. twice per day for four weeks"}, "[2]": {"biological_target": "T1, sheep seminal vesicle cyclooxygenase (Ovis aries, UniProt P05979)", "T1 construct": "incubations with sheep seminal vesicle gland microsomes (2 mg/mL); from tissue; host or cells: sheep seminal vesicle gland microsomes", "T1 sequence (P05979 25-600)": "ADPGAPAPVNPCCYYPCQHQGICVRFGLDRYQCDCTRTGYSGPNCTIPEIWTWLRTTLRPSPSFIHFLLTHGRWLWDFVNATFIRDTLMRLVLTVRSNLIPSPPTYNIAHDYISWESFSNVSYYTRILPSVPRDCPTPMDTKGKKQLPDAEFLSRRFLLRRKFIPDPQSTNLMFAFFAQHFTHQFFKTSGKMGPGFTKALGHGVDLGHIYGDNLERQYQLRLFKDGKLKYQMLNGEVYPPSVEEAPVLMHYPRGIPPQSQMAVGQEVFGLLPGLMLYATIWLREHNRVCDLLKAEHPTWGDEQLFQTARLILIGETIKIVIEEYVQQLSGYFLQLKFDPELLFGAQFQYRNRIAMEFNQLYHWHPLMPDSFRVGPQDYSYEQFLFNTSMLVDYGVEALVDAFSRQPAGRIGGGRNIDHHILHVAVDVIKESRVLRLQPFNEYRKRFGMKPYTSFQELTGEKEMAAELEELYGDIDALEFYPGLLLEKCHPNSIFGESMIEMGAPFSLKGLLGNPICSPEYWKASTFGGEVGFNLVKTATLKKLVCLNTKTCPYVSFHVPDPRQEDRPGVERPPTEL"}, "[3]": {"biological_target": "T2, human platelet 12-lipoxygenase (Homo sapiens, UniProt P18054)", "T2 construct": "the supernatant containing the 12-lipoxygenase activity stored frozen until used; from tissue; host or cells: human platelets, sonicated lysate supernatant", "T2 sequence (P18054 1-663)": "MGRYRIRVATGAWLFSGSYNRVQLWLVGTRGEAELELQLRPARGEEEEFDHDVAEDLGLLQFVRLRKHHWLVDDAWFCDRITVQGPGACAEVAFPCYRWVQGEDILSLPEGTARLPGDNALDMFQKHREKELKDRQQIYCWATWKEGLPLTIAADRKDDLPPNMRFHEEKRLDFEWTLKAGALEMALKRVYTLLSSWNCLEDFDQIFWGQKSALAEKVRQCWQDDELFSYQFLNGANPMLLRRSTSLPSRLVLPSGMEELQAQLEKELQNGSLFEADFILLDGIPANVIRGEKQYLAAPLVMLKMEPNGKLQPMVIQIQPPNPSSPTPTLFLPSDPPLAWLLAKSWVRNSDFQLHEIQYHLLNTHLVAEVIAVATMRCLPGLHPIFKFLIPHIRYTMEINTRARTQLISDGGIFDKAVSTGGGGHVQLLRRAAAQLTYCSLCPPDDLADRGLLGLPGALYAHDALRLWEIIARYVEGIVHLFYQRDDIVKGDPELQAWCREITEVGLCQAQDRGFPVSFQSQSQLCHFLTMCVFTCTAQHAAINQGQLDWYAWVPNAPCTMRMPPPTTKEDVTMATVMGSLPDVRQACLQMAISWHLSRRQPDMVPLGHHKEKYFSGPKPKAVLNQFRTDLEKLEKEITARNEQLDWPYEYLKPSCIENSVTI"}}}
{"smiles": "CC(C)NC[C@H](O)COc1cccc2ccccc12", "note": "[propranolol]", "values": [{"measurement": "potency relative to the D-enantiomer", "setting": "beta-adrenergic", "value": 100, "unit": "times"}]}
{"smiles": "C[C@@H](c1cc2ccccc2s1)N(O)C(N)=O", "note": "[S-(−)-zileuton]", "values": [{"measurement": "glucuronidation", "setting": "[1]", "value": "selective glucuronidation"}]}
{"smiles": "CC(c1cc2ccccc2s1)N(O)C(N)=O", "note": "(racemic) [racemic zileuton, N-(1-benzo[b]thien-2-ylethyl)-N-hydroxyurea]", "values": [{"measurement": "decreases in LTB4", "setting": "LTB4", "value": "75 to 85", "unit": "%"}, {"measurement": "patients reporting an adverse event during the four week trial", "setting": "four week trial", "value": "One hundred"}, {"measurement": "improvement in symptoms of rheumatoid arthritis", "setting": "human volunteers, 800 mg p.o. twice per day for four weeks", "value": "statistically significant improvement"}, {"measurement": "inhibitory effect on sheep seminal vesicle cyclooxygenase", "setting": "[2]", "value": "little inhibitory effect"}, {"measurement": "inhibitory effect on human platelet 12-lipoxygenase", "setting": "[3]", "value": "little inhibitory effect"}]}
{"smiles": "C[C@H](c1cc2ccccc2s1)N(O)C(N)=O", "note": "[(+)-zileuton, (+) isomer of N-(1-benzo[b]thien-2-ylethyl)-N-hydroxyurea]", "values": [{"measurement": "effect on glucuronidation of S-(−)-zileuton", "setting": "[1]", "value": "enhancement of that reaction"}]}
